The term pIC50 denotes −log10 of the IC50, conventionally taken in molar units. For orientation: pKi means the Ki on a negative log10 scale, so that one unit is a factor of ten.

pIC50, pKi: −log10 of the molar value. The source made the active and inactive calls. No cut-off for these calls is given here.

Here are results for 22 compounds from ChEMBL document CHEMBL4152238, “Design, synthesis, structure-activity relationships and X-ray structural studies of novel 1-oxopyrimido[4,5-c]quinoline-2-acetic acid derivatives as selective and potent inhibitors of human aldose reductase” (Eur J Med Chem, 2018).

The subject of one assay is HT-1080. Nature of the assay: Cytotoxicity against human HT1080 cells after 72 hrs by MTT assay. To be noted: HT-1080, 72 h. In kind it is functional, cell-based. On the technique in general: Tetrazolium assays rely on reduction of a dye to a coloured formazan, in cell work by metabolically active cells.
A short description of assay [1]: Inhibition of […] AKR1B1 expressed in Escherichia coli BL21 using D,L-glyceraldehyde as substrate pretreated for 5 mins followed by substrate addition by spectrophotometric method. To be noted: for pKi: read-out: Ki(app).
Assay [2] addresses Aldo-keto reductase family 1 member B10 (Homo sapiens, UniProt O60218). Nature of the assay: Inhibition of N-terminal His10-tagged AKR1B10 (unknown origin) expressed in Escherichia coli BL21 using D,L-glyceraldehyde as substrate pretreated for 5 mins followed by substrate addition by spectrophotometric method.
Assay [3] is described as follows: Selectivity ratio of IC50 for N-terminal His10-tagged AKR1B10 (unknown origin) expressed in Escherichia coli BL21 to IC50 for […] AKR1B1 expressed in Escherichia coli BL21.
The species named for another assay is Cricetulus griseus. Nature of the assay: Inhibition of […] AKR1B1 expressed in Escherichia coli BL21 up to 10 uM using D,L-glyceraldehyde as substrate pretreated for 5 mins followed by substrate addition by spectrophotometric method.

Sequence of Aldo-keto reductase family 1 member B10 (O60218 whole entry): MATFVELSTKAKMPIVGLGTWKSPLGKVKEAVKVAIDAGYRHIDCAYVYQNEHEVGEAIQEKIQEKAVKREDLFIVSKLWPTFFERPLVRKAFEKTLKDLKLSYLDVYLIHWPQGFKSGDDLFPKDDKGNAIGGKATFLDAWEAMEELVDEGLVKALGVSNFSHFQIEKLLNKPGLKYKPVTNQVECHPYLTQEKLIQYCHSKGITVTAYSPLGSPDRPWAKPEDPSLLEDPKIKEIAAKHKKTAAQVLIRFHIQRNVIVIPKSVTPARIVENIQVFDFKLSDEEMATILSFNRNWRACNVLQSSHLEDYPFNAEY

`COc1cccc2c1C(=O)c1c(O)c3c(c(O)c1C2=O)C[C@@](O)(C(=O)CO)C[C@@H]3O[C@H]1C[C@H](N)[C@H](O)[C@H](C)O1` [DOXORUBICIN] showed a pIC50 with HT-1080 of 8.24.

As for `Cc1nc2c(-c3ccc(Br)cc3)nc3ccc(Cl)cc3c2c(=O)n1CC(=O)O`, the results for the pIC50 (in assay [1]; in assay [2]; in the assay with HT-1080) were 5.72, 4.86 and < 4.00, respectively. The Ratio IC50 in assay [3] stood at 7.

For `COc1ccc(-c2nc3ccc(Cl)cc3c3c(=O)n(CC(=O)O)c(C)nc23)cc1`, the pIC50 in assay [1] was 6.12; in assay [2], 4.77; in the assay with HT-1080, 4.11. Further, the Ratio IC50 in assay [3] came out at 22.

`COc1ccc2nc(-c3ccc(Cl)cc3)c3nc(C)n(CC(=O)O)c(=O)c3c2c1`: the pIC50 is 5.50 in assay [1], 4.82 in assay [2] and 4.06 in the assay on HT-1080. Besides, the Ratio IC50 in assay [3] was 5.

With `Cc1nc2c(-c3ccc(Br)cc3)nc3ccc(F)cc3c2c(=O)n1CC(=O)O`, the values for the pIC50 (in assay [1]; in assay [2]; in the assay on HT-1080) were 6.24, 5.02 and < 4.00, respectively. Moreover, in assay [3], the Ratio IC50 worked out at 17.

In the case of `COc1ccc(-c2nc3ccc(F)cc3c3c(=O)n(CC(=O)O)c(C)nc23)cc1`, the pIC50 in assay [1] is 6.59; in assay [2] it was 5.00; in the assay with HT-1080, < 4.00. In addition, the pKi in assay [1] is 6.62. In assay [3], the Ratio IC50 was 38.

As to `Cc1ccc2nc(-c3ccc(Cl)cc3)c3nc(C)n(CC(=O)O)c(=O)c3c2c1`, the figures for the pIC50 (in assay [1]; in assay [2]; in the assay on HT-1080) were 5.31, 4.55 and < 4.00, respectively. Besides, in assay [3], the Ratio IC50 was found to be 6.

In the case of `Cc1nc2c(-c3ccc(Br)cc3)nc3ccc(Br)cc3c2c(=O)n1CC(=O)O`, the figures for the pIC50 (in assay [1]; in assay [2]; in the assay on HT-1080) were 5.80, 4.79 and < 4.00, respectively. The Ratio IC50 in assay [3] is 10.

Regarding `Nn1c(-c2ccc(Br)cc2)nc2c(-c3ccc(Br)cc3)nc3ccc(Cl)cc3c2c1=O`, the inhibition result in the assay listed under Cricetulus griseus was “inactive”.

With `Cc1nc2c(-c3ccc(Cl)cc3)nc3ccccc3c2c(=O)n1CC(=O)O`, the values for the pIC50 (in assay [1]; in assay [2]; in the assay with HT-1080) were 6.68, 5.10 and < 4.00, respectively. For the same compound, the pKi in assay [1] is 6.89. Besides, the Ratio IC50 in assay [3] amounted to 37.

For `CCc1nc2c(-c3ccc(Cl)cc3)nc3ccc(F)cc3c2c(=O)n1CC(=O)O`, in assay [1], the pIC50 is 6.39 and the pKi is 6.30. For the same compound, in assay [2], the pIC50 was 5.41. Besides, the Ratio IC50 in assay [3] came out at 9.

As for `O=C(O)Cn1c(Cc2ccccc2)nc2c(-c3ccc(Cl)cc3)nc3ccccc3c2c1=O`, the pIC50 is 5.58 in assay [1] and 5.63 in assay [2]. In addition, the Ratio IC50 in assay [3] came to 1.

Consider `Cc1nc2c(-c3ccc(Cl)cc3)nc3ccc(F)cc3c2c(=O)n1CC(=O)O`, for which the pIC50 in assay [1] was 6.46; in assay [2] it was 5.09; in the assay on HT-1080 it was < 4.00. Further, in assay [1], the pKi was 6.62. Also, the Ratio IC50 in assay [3] worked out at 23.

Regarding `Cc1nc2c(-c3ccc(Br)cc3)nc3ccccc3c2c(=O)n1CC(=O)O`, the pIC50 in assay [1] was 6.70; in assay [2] it was 5.00; with HT-1080 it was < 4.00. In addition, in assay [1], the pKi was 6.82. In addition, in assay [3], the Ratio IC50 amounted to 50.

As for `CCCc1nc2c(-c3ccc(Cl)cc3)nc3ccccc3c2c(=O)n1CC(=O)O`, the values for the pIC50 in assay [1] and in assay [2] were 6.72 and 5.48, respectively. Further, the pKi in assay [1] was 6.89. The Ratio IC50 in assay [3] stood at 18.

Regarding `Nn1c(-c2ccc(Cl)cc2)nc2c(-c3ccc(Cl)cc3)nc3ccc(Cl)cc3c2c1=O`, in the assay filed under Cricetulus griseus, the inhibition entry is “inactive”.

Regarding `Cc1nc2c(-c3ccccc3)nc3ccccc3c2c(=O)n1CC(=O)O`, in assay [1], the pIC50 was 6.34 to 6.37 and the pKi is 6.36. The pIC50 in assay [2] was 5.19. For the same compound, in assay [3], the Ratio IC50 worked out at 14.

For the compound `O=C(O)Cn1c(Cc2ccc(Cl)cc2)nc2c(-c3ccc(Cl)cc3)nc3ccccc3c2c1=O`, the pIC50 is 6.00 in assay [1] and 5.52 in assay [2]. Besides, the Ratio IC50 in assay [3] turned out to be 3.

In the case of `CCc1nc2c(-c3ccc(Cl)cc3)nc3ccccc3c2c(=O)n1CC(=O)O`, in assay [1], the pIC50 was 6.92 and the pKi is 7.14. Also, in assay [2], the pIC50 is 5.33. For the same compound, the Ratio IC50 in assay [3] stood at 39.

For the compound `Cc1nc2c(-c3ccc(Cl)cc3)nc3ccc(Cl)cc3c2c(=O)n1CC(=O)O`, the pIC50 is 5.81 in assay [1], 5.02 in assay [2] and 4.52 in the assay with HT-1080. Besides, the Ratio IC50 in assay [3] amounted to 6.

With `Cc1nc2c(-c3ccc(Cl)cc3)nc3ccc(Br)cc3c2c(=O)n1CC(=O)O`, the pIC50 is 5.65 in assay [1], 4.75 in assay [2] and < 4.00 with HT-1080. The Ratio IC50 in assay [3] came out at 8.

Regarding `O=C(O)Cn1c(Cc2ccc(Cl)cc2)nc2c(-c3ccccc3)nc3ccccc3c2c1=O`, the pIC50 in assay [1] was 6.18; in assay [2], 5.23. For the same compound, in assay [3], the Ratio IC50 came to 9.
